Assay results reported in patent US4526893A, “Isocarbostyril derivatives” (priority 1982, dated 1985).
Like-named read-outs stand apart in the source and are kept apart here. Each block holds one compound with its values, some of them ahead of it.

Experiments:
[1] = molecular target: T1, aorta of rat (Rattus norvegicus, UniProt P23944); test: cell-based
T1 sequence (P23944 1-561): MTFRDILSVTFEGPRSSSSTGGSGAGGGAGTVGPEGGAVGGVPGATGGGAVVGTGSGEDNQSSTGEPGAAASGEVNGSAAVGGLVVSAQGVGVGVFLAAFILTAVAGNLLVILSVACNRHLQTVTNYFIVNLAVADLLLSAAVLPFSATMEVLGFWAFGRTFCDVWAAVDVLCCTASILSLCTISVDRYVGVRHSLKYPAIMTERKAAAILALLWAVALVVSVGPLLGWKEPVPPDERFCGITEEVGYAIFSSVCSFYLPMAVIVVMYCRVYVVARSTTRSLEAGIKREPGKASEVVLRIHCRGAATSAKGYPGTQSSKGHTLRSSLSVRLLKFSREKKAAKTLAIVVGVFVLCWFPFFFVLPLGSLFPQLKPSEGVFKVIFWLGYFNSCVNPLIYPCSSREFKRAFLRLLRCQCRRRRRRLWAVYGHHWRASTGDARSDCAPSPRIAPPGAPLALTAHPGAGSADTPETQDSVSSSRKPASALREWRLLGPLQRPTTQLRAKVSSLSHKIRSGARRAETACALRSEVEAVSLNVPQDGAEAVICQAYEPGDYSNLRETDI

[2] = molecular target: T2, right artrium of guinea pig (Cavia porcellus, UniProt H0W3H1); test: β-blocking effect: antagonism of increase of beat rate of right atrium of guinea pig caused by isoproterenol; type: cell-based
T2 construct: beat rate of a right artrium of guinea pig; from tissue; host or cells: guinea pig right atrium
Description: This was evaluated in terms of the effect antagonizing an increase of beat rate of a right artrium of guinea pig caused by isoproterenol. Efficiency of blocking by the corresponding compound is expressed in pA2 value (see Van Bossum, Arch. int. Pharmacodyn. Ther. 143, 299, 1963).

[3] = test system: spontaneously hypertensive rats; test: Antihypertensive effect on the spontaneously hypertensive rats; type: in vivo, rat; details: 30 mg/kg, single oral administration, SHR, average blood pressure by aortic cannula
Description: Antihypertensive effect on the spontaneously hypertensive rats Five spontaneous rats (SHR), showing more than […] of systolic blood pressure were used. After a single oral administration, antihypertensive activity of the corresponding compound was evaluated in terms of a decrease in average blood pressure measured by means of a cannula embedded in the aorta.

[4] = Acute toxicity of active compounds (LD50); details: in vivo
From the text: Beta-blocking agents hitherto known have to be given to hypertensive patients for some period before desirable effects are obtained.

[5] = test system: heart rate; test: Influence on the heart rate in unanaesthetized dogs; type: in vivo, dog; details: 10 mg/kg oral
Description: 4. Influence on the heart rate This was measured in dogs under unanaesthesized condition after oral administration of the corresponding compound.

[6] = clinical use; cited from earlier work
[7] = pA2 vs phenylephrine, rat aorta, read-out: α-Blocking effect (pA2) (converted)
[8] = pA2 vs isoproterenol, guinea pig right atrium, read-out: β-Blocking effect (pA2) (converted)

T2 sequence (H0W3H1 1-470): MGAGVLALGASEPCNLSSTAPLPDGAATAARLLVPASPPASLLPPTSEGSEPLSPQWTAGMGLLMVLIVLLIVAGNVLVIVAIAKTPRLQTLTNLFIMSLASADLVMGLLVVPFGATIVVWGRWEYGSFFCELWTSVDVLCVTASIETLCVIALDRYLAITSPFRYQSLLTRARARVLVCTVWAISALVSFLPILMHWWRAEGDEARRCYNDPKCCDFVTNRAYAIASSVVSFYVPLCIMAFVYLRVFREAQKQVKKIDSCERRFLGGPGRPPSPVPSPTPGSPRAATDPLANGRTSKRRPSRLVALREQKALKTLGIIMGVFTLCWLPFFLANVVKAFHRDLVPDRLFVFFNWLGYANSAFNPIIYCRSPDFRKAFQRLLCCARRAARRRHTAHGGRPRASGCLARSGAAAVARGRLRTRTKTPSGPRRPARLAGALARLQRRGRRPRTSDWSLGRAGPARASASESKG

- Kb [1, 7]: 26.9 nM
- Kb [2, 8]: 13.2 nM
Structure (SMILES): CC(COc1ccccc1)NCC(O)COc1c[nH]c(=O)c2ccccc12.Cl (centres unmarked) [4-[3-(1-methyl-2-phenoxyethyl-amino)-2-hydroxypropoxy]isocarbostyril hydrochloride]
- Antihypertensive effect: decrease in blood pressure [3]: 15 mm Hg

- Kb [2, 8]: 37.2 nM
Structure (SMILES): CC(COc1ccc([N+](=O)[O-])cc1)NCC(O)COc1c[nH]c(=O)c2ccccc12.Cl (centres unmarked) [4-[3-{1-methyl-2-(4-nitrophenoxy)ethylamino}-2-hydroxypropoxy]isocarbostyril hydrochloride]
- Antihypertensive effect: decrease in blood pressure [3]: 17 mm Hg

Structure (SMILES): COc1ccc(OCC(C)NCC(O)COc2c[nH]c(=O)c3ccccc23)c(OC)c1.Cl (centres unmarked) [4-[3-{2-(2,4-dimethoxyphenoxy)-1-methylethylamino}-2-hydroxypropoxy]isocarbostyril hydrochloride]
- LD50 ([4]; iv, I.V., read-out: LD50 I.V.): 118 mg/kg
- LD50 ([4]; po, P.O., read-out: LD50 P.O.): > 2000 mg/kg
- Kb [1, 7]: 63.1 nM
- Kb [2, 8]: 5.5 nM
- Antihypertensive effect: decrease in blood pressure [3]: 32 mm Hg

- Kb [2, 8]: 14.8 nM
Structure (SMILES): CC(COc1ccccc1C(N)=O)NCC(O)COc1c[nH]c(=O)c2ccccc12 (centres unmarked) [4-[3-{2-(2-carbamoylphenoxy)-1-methylethylamino}-2-hydroxypropy]isocarbostyril]
- Antihypertensive effect: decrease in blood pressure [3]: 10 mm Hg

- Kb [1, 7]: 19.5 nM
- Kb [2, 8]: 10.7 nM
Structure (SMILES): COc1ccccc1OCC(C)NCC(O)COc1c[nH]c(=O)c2ccccc12.Cl (centres unmarked) [4-[3-{2-(2-methoxyphenoxy)-1-methylethylamino}-2-hydroxypropoxy]isocarbostyril hydrochloride]
- Antihypertensive effect: decrease in blood pressure [3]: 35 mm Hg

Structure (SMILES): CC(COc1ccc(N)cc1)NCC(O)COc1c[nH]c(=O)c2ccccc12.Cl (centres unmarked) [4-[3-{2-(4-aminophenoxy)-1-methylethylamino}-2-hydroxypropoxy]isocarbostyril hydrochloride]
- Kb [2, 8]: 7.24 nM
- Antihypertensive effect: decrease in blood pressure [3]: 31 mm Hg

Structure (SMILES): CC(COc1ccc(N)cc1)NCC(O)COc1c[nH]c(=O)c2ccccc12 (centres unmarked) [4-[3-{2-(4-aminophenoxy)-1-methylethylamino}-2-hydroxypropoxy]isocarbostyril]
- LD50 ([4]; iv, I.V., read-out: LD50 I.V.): 77.4 mg/kg
- LD50 ([4]; po, P.O., read-out: LD50 P.O.): > 2000 mg/kg

Structure (SMILES): CC(COc1ccc(O)cc1)NCC(O)COc1c[nH]c(=O)c2ccccc12 (centres unmarked) [4-[3-{2-(4-hydroxyphenoxy)-1-methylethylamino{-2-hydroxy-propoxy]isocarbostyril]
- LD50 ([4]; iv, I.V., read-out: LD50 I.V.): 163 mg/kg
- LD50 ([4]; po, P.O., read-out: LD50 P.O.): > 2000 mg/kg
- Kb [1, 7]: 102 nM
- Kb [2, 8]: 2.95 nM
- Antihypertensive effect: decrease in blood pressure [3]: 26 mm Hg

Structure (SMILES): COc1ccc(OCC(C)NCC(O)COc2c[nH]c(=O)c3ccccc23)cc1.Cl (centres unmarked) [4-[3-{2-(4-methoxyphenoxy)-1-methylethylamino}-2-hydroxypropoxy]isocarbostyril hydrochloride]
- LD50 ([4]; iv, I.V., read-out: LD50 I.V.): 137 mg/kg
- LD50 ([4]; po, P.O., read-out: LD50 P.O.): > 2000 mg/kg
- Kb [2, 8]: 9.55 nM
- Antihypertensive effect: decrease in blood pressure [3]: 21 mm Hg

Structure (SMILES): CC(CCc1ccccc1)NCC(O)c1ccc(O)c(C(N)=O)c1 (centres unmarked) [Labetalol, reference compound]
- Kb [1]: 41.7 nM
- Kb [2]: 38 nM
- Antihypertensive effect: decrease in blood pressure [3]: 31 mm Hg
- Influence on heart rate: change [5]: Increase
- orthostatic hypotension (in words) [6]: serious adverse reaction

Structure (SMILES): CC(C)NCC(O)COc1cccc2ccccc12 (centres unmarked) [Propranolol, reference compound]
- Antihypertensive effect: decrease in blood pressure [3]: 3 mm Hg
- Influence on heart rate: change [5]: Decrease
